Data: patent US6664406B1, “Nervonic acid derivatives, their preparation and use” (Croda International PLC, priority 1999, dated 2003)
Marks after values point to notes of the source that are not given here.

Columns and labels:
[1] = test system: neurological EAE in the Lewis rat; assay: NA:NA (ethyl oleate formulation) in acute EAE (Example 5)
Description: Male Lewis rats, weighing 240-360 g on the day of inoculation, were injected in each rear footpad with 0.1 ml of an emulsion containing equal parts of guinea pig spinal cord, phosphate buffered saline (PBS) and incomplete Freund's adjuvant supplemented with 10 mg/ml Mycobacterium tuberculosis H37Ra.
Animals were weighed daily and assessed for neurological disease from day 7 post-inoculation (PI). Rats displaying symptoms of EAE were scored as follows: 1: flaccid tail (FT), 2: hind limb hypotonia (HLH), 3: partial hind limb paralysis (PHLP), 4: complete hind limb paralysis (CHLP), 5: moribund or dead.
Control-sensitised animals received ethyl oleate vehicle or were undosed, and each treatment contained 10 animals.
Students t-test was used to assess significant differences in neurological scores and the Fishers exact probability test for the presence or absence of symptoms.

[2] = test system: CREAE in the Biozzi mouse model; assay: NA:NA and NA:GLA in Miglyol 810 in CREAE (Example 8); assay type: in vivo
Description: (§1) Male Biozzi mice weighing 30-35 g were injected in each flank with 0.15 mL of an emulsion containing lyophilised mouse spinal cord, phosphate buffered saline and incomplete Freund's adjuvant supplemented with Mycobacterium butyricum and Mycobacterium tuberculosis H37Ra.
(§2) 1: Partial Flaccid Tail (PFT), 2: Complete Flaccid Tail (CFT), 3: Impaired Righting Reflex (IRR), 4: Ataxic Gait (AG), 5: Hind Limb Hypotonia (HLH), 6: Partial Hind Limb Paralysis (PHLP), 7: Complete Hind Limb Paralysis (CHLP), 8: Moribund (M), 9: Dead (D).
Therefore, Miglyol appeared well-suited for use as a vehicle in subsequent studies to determine the efficacy of compounds in CREAE. Therefore, using Miglyol 810 as the new vehicle, prophylactic effects of NA:NA and NA:GLA were re-assessed on CREAE in the Biozzi mouse model (90% dilution, 1000 mg/kg/day, up to 43 days PI).

[3] = Miscibility / physical state of oral compositions in vehicle; assay type: physicochemical; conditions: room temperature (about 20° C.); dilution in vehicle
From the text: Formulations of the present invention suitable for oral administration may be in the form of discrete units such as capsules, cachets, tablets or lozenges, each containing a predetermined amount of the active ingredient; in the form of a powder or granules; in the form of a solution or a suspension in an aqueous liquid or non-aqueous liquid; or in the form of an oil-in-water emulsion or a water-in-oil emulsion. The active ingredient may also be in the form of a bolus, electuary or paste. For such formulations, a range of dilutions of the active ingredient in the vehicle is suitable, such as from 1% to 99%, preferably 5% to 50% and more preferably 10% to 25% dilution. Depending upon the level of dilution, the formulation will be either a liquid at room temperature (in the region of about 20° C.) or a low-melting solid.

[4] = Nervonic acid composition of total polar lipid from mouse brain (Example 9); assay type: in vivo; conditions: CREAE-inoculated mice
Description: Upon termination of certain biological evaluations, rat or mice brains were extracted and the fatty acid composition of total polar lipids from rat/mouse brain was determined.
Biological material was sent for analysis to Dr J. Hendersen at the University of Stirling, Institute of Aquaculture, Scotland. Analyses were carried out on two batches of experiments (detailed respectively in Example 6 and Example 7).

[5] = test system: chronic EAE in the Biozzi mouse model; assay: NA:NA and NA:GLA in ethyl oleate in chronic relapsing EAE (Example 7); assay type: in vivo; conditions: for AG: Percentage of mice in the group / CFT: Percentage of mice in the group / CHLP: Percentage of mice in the group / HLH: Percentage of mice in the group / PFT: Percentage of mice in the group / PHLP: Percentage of mice in the group: ethyl oleate vehicle
Description: as §1, §2

[6] = 10% w/w in ethyl oleate, 1000 mg/kg body weight/day
[7] = 10% w/w in ethyl oleate, oral 1000 mg/kg body weight/day, n=10
[8] = acute phase, Miglyol 810 vehicle, 1000 mg/kg/day
[9] = acute phase, Miglyol 810 vehicle, n=12, NA:GLA n=11
[10] = relapse phase, Miglyol 810 vehicle, 1000 mg/kg/day
[11] = relapse phase, Miglyol 810 vehicle, NA:GLA n=9, NA:NA n=11
[12] = Biozzi mouse, 10% w/w in ethyl oleate, 1000 mg/kg body weight/day
[13] = acute phase, Biozzi mouse, 10% w/w in ethyl oleate, 1000 mg/kg body weight/day
[14] = relapse phase, Biozzi mouse, 10% w/w in ethyl oleate, 1000 mg/kg body weight/day

CCCCCCCC/C=C\CCCCCCCCCCCCCC(=O)OCCCOC(=O)CCCCCCCCCCCCC/C=C\CCCCCCCC [NA:NA, 1,3-di-(z-15-tetracosenoyloxy)propane]
CHLP: Number of animals showing symptoms/total [1, 6]: 1/10 | FT: Number of animals showing symptoms/total [1, 6]: 6/10** | HLH: Number of animals showing symptoms/total [1, 6]: 4/10*** | Neurological scores [1, 6]: consistently lower compared to values recorded for undosed and vehicle-treated animals | PHLP: Number of animals showing symptoms/total [1, 6]: 3/10 | animals that experienced symptoms of disease [1, 6]: 60% | effect on incidence of disease [1, 6]: significantly reduces the incidents of disease | Mean day of final symptom loss (±SD) [1, 7]: 16.3 ± 1.0 days | Mean day of symptom onset (±SD) [1, 7]: 12.3 ± 0.8 days | Mean duration of symptoms (day ± SD) [1, 7]: 4.0 ± 1.2 days | Number of dead/total [1, 7]: 0/10 | Number diseased/total ([1]; […], oral 1000 mg/kg body weight/day, 5 days prior to inoculation and 22 days PI, n=10): 6/10* | effect on the neurological course of CREAE ([2]; Biozzi mouse, Miglyol 810 vehicle, 1000 mg/kg/day): did not seem significantly to alter the course of CREAE | No. of diseased mice ([2]; acute phase, Biozzi mouse, Miglyol 810 vehicle (90% dilution), 1000 mg/kg/day, up to 43 days PI): 12/12 | Mean day of symptom loss [2, 8]: 26.3 ± 1.0 days | Mean day of symptom onset [2, 8]: 17.1 ± 1.9 days | Mean duration of symptoms [2, 8]: 9.2 ± 1.6 days | Number of dead mice [2, 8]: 1/12 | AG: Percentage of mice in the group [2, 9]: 100% | CFT: Percentage of mice in the group [2, 9]: 100% | CHLP: Percentage of mice in the group [2, 9]: 58% | D (dead): Percentage of mice in the group [2, 9]: 8% | HLH: Percentage of mice in the group [2, 9]: 100% | IRR: Percentage of mice in the group [2, 9]: 100% | M (moribund): Percentage of mice in the group [2, 9]: 0% | PFT: Percentage of mice in the group [2, 9]: 100% | PHLP: Percentage of mice in the group [2, 9]: 75% | Mean day of symptom loss [2, 10]: 44.0 ± 3.6 days | Mean day of symptom onset [2, 10]: 34.3 ± 6.6 days | Mean duration of symptoms [2, 10]: 13.7 ± 4.0 days | No. of diseased mice [2, 10]: 9/11 | Number of dead mice [2, 10]: 3/11 | AG: Percentage of mice in the group [2, 11]: 82% | CFT: Percentage of mice in the group [2, 11]: 82% | CHLP: Percentage of mice in the group [2, 11]: 73% | D (dead): Percentage of mice in the group [2, 11]: 27% | HLH: Percentage of mice in the group [2, 11]: 82% | IRR: Percentage of mice in the group [2, 11]: 82% | M (moribund): Percentage of mice in the group [2, 11]: 0% | PFT: Percentage of mice in the group [2, 11]: 82% | PHLP: Percentage of mice in the group [2, 11]: 73% | concentration at which compositions are liquids at room temperature [3]: ≤ 25% | NA levels in mouse brain lipids compared to undosed and vehicle [4]: enhancement of the NA levels in brain lipids | Acute and relapse symptoms (mean neurological scores) [5, 12]: completely abolished | onset of relapse [5, 12]: delayed, but not significantly | Mean day of symptom loss [5, 13]: 24.7 ± 3.2 days | Mean day of symptom onset [5, 13]: 22.3 ± 3.8 days | Mean duration of symptoms [5, 13]: 2.3 ± 1.2 days | Number of dead mice [5, 13]: 0/10 | No. of diseased mice ([5]; acute phase, Biozzi mouse, […], oral 1000 mg/kg body weight/day, 5 days prior to inoculation and 43 days PI, n=10): 3/10 | AG: Percentage of mice in the group ([5]; acute phase, n=10): 20% | CFT: Percentage of mice in the group ([5]; acute phase, n=10): 0% | CHLP: Percentage of mice in the group ([5]; acute phase, n=10): 0% | HLH: Percentage of mice in the group ([5]; acute phase, n=10): 10% | PFT: Percentage of mice in the group ([5]; acute phase, n=10): 10% | PHLP: Percentage of mice in the group ([5]; acute phase, n=10): 0% | Mean day of symptom onset [5, 14]: 43.3 ± 1.2 days | No. of diseased mice [5, 14]: 3/10 | Number of dead mice [5, 14]: 1/10 | AG: Percentage of mice in the group ([5]; relapse phase, n=10): 30% | CFT: Percentage of mice in the group ([5]; relapse phase, n=10): 0% | CHLP: Percentage of mice in the group ([5]; relapse phase, n=10): 0% | HLH: Percentage of mice in the group ([5]; relapse phase, n=10): 30% | PFT: Percentage of mice in the group ([5]; relapse phase, n=10): 20% | PHLP: Percentage of mice in the group ([5]; relapse phase, n=10): 0%
